Results taken from US20230123334A1, “AMINO LIPID COMPOUND, PREPARATION METHOD THEREFOR, AND APPLICATION THEREOF” (SHENZHEN SHENXIN BIOTECHNOLOGY CO., LTD., priority 2020, published 2023).

Columns and labels:
[1] = Particle size and PDI of lipid nanoparticles (Nano-ZSZEN3600, Malvern); assay type: physicochemical; settings: LNPs; for Particle size (nm): Fluc mRNA
Description: (§1) The amino lipid compound of the invention was mixed with DOPE, cholesterol and PEG2000-DMG in a molar ratio of 45:10:42.5:2.5, and dissolved in absolute ethanol such that the molar concentration of the amino lipid compound was 0.001-0.01 mmol/L. By using a microinjection pump, the resultant ethanol solution and a sodium acetate solution (50 mM, pH=4.0) in which luciferase mRNA (Fluc mRNA, TriLink) was dissolved were mixed in a volume ratio of 1:3 in a microchannel chip to prepare a crude solution of lipid nanoparticles, which was then dialyzed in 1×PBS at a controlled temperature of 4° C. for 6 h using a dialysis box (Fisher, MWCO 20,000) and filtered through a 0.22 μm microporous filter membrane before use. The mass ratio of the amino lipid compound to Fluc mRNA was about 10:1. The resultant solution of lipid nanoparticles (LNPs) was administered to the tested animals by subcutaneous administration.
Characterization of particle size: the particle size and PDI of the prepared lipid nanoparticles were determined by Nano-ZSZEN3600 (Malvern). 40 uL of LNP solution was taken for particle size measurement with circulation for three times, 30 s for each circulation.
(§2) The preparation method was the same as Formulation method 1, except that amino lipid compound, DSPC, cholesterol and PEG2000-DMG were used in a molar ratio of 50:10:38.5: 1.5. The resultant solution of lipid nanoparticles (LNPs) was administered to the tested animals by tail vein and intramuscular injection.

[2] = Encapsulation rate of LNP RNA (Qubit RNA HS Assay kit); assay type: physicochemical; settings: LNPs
Description: as §1
Detection of encapsulation rate: the concentration of LNP RNA was detected by Qubit® RNA HS Assay kit. The theoretical RNA concentration was given by the total amount of RNA input divided by the total volume of the final solution.
as §2

BALB/c mice = experiment: In vivo delivery of luciferase mRNA (Fluc mRNA) by lipid nanoparticles, in vivo imaging; settings: 0.5 mg/kg Fluc mRNA, after 12 hours
Description: as §1, §2
Animal Preparation: 6-week aged female BALB/c mice weighed about 20 g were selected and fed in a SPF-grade feeding room. Animal tests were conducted strictly according to the guidelines of national health institutions and the requirements of animal ethics.
In vivo delivery: 9 mice were assigned randomly to each group, and the lipid nanoparticle solution was injected by three routes of administration, i.e., subcutaneous, intramuscular and tail vein injection at a dosage of 0.5 mg/kg Fluc mRNA (3 mice for each route of administration). After 12 hours, 200 μL of 10 mg/mL potassium salt of […] (PerkinElmer) was injected into each mouse through the tail vein. After 10 min, the mice were placed under an in vivo imaging system (IVIS-200, Xenogen) to observe the total fluorescence intensity of each mouse and take photographs for record. The expression intensity of Fluc mRNA delivered by representative amino lipid compounds through the three routes of administration are shown in Table 5-7. DLin-MC3 was used as control.

HEK293 cells [3] = experiment: Preliminary screening as DNA vectors, GFP transfection of HEK293 cells; assay type: cell-based; settings: HEK293 cells; lipid/DOPE liposome with 75 ng plasmid DNA (psin-EGFP-IRES-Puro); number of cells expressing GFP divided by total number of nuclei (Hoechst)
In short: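 First, amino lipid and DOPE were vortexed in sodium acetate buffer (pH 5.6) to form liposomes. Next, these were held with 75 ng EGFP plasmid at room temperature for 30 min. Finally, HEK293 cells were added, cultured at 37° C., Hoechst-stained, and GFP+/total nuclei scored by imaging.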

HEK293 cells [4] = experiment: Preliminary screening as mRNA vectors, EGFP mRNA transfection of HEK293 cells; assay type: cell-based; settings: HEK293 cells, 96-well plates, EGFP mRNA 50 ng per well; percentage of GFP fluorescent cells relative to total number of cells (Hoechst)
In short: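 Screening format: EGFP mRNA transfection (50 ng/well) into HEK293 in 10% FBS-supplemented DMEM. Percent green fluorescent cells, normalised to Hoechst nuclear count, gave the value; Lipofectamine2000 was the reference transfectant.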

Hela cells [5] = experiment: Transfection of Hela cell line, DNA vectors; assay type: cell-based; settings: 75 ng plasmid DNA, GFP cells / total cells
In short: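 Amino lipid/DOPE liposomes in sodium acetate pH 5.6 were complexed with 75 ng psin-EGFP-IRES-Puro plasmid for 30 min at room temperature, then mixed with 3-5×10^4 Hela cells in DMEM/10% FBS at 37° C. Hoechst stain after 20-24 h, imaging after a further 20-24 h. Efficiency = GFP-positive cells / total nuclei.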

Hela cells [6] = experiment: Transfection of Hela cell line, mRNA vectors; assay type: cell-based; settings: 50 ng EGFP mRNA per well
In short: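 Transfection efficiency was scored as GFP-fluorescent cells over Hoechst-stained total nuclei, with Lipofectamine2000 as reference reagent. Each well of HeLa cells, grown in DMEM plus 10% FBS, received 50 ng EGFP mRNA.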

MCF7 cells [7] = experiment: Transfection of MCF7 cell line, DNA vectors; assay type: cell-based; parameters: concentration or dose not given beside the values; settings: plasmid DNA, GFP cells / total cells
In short: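 Read-out: GFP-positive cells as % of all Hoechst-stained nuclei after 96-well transfection of MCF7 cells grown in serum-supplemented DMEM. Positive control was Lipofectamine2000, used per manufacturer's protocol.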

MCF7 cells [8] = experiment: Transfection of MCF7 cell line, mRNA vectors; assay type: cell-based; settings: 50 ng EGFP mRNA per well
In short: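 Efficiency was scored as the fraction of GFP-fluorescent cells over all Hoechst-counted cells after delivery of 50 ng EGFP mRNA per well. Cells were MCF7 grown in serum-supplemented DMEM, and Lipofectamine2000 served as reference.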

[9] = Formulation Method 1 (amino lipid:DOPE:cholesterol:PEG2000-DMG 45:10:42.5:2.5)
[10] = Formulation method 2 (amino lipid:DSPC:cholesterol:PEG2000-DMG 50:10:38.5:1.5)

Structure (SMILES) | PDI ([1]; Formulation Method 1) | Particle size (nm) [1, 9] | PDI ([1]; Formulation method 2) | Particle size (nm) [1, 10] | Encapsulation rate ([2]; Formulation Method 1) | Encapsulation rate ([2]; Formulation method 2) | Fluorescence intensity (expression intensity of Fluc mRNA) (BALB/c mice; intramuscular administration) | Fluorescence intensity (expression intensity of Fluc mRNA) (BALB/c mice; subcutaneous administration) | Fluorescence intensity (expression intensity of Fluc mRNA) (BALB/c mice; tail vein administration) | Absolute DNA transfection efficiency in HEK293 cells (HEK293 cells [3]) | Absolute mRNA transfection efficiency in HEK293 cells (HEK293 cells [4]) | Absolute DNA transfection efficiency in Hela cells (Hela cells [5]) | Absolute mRNA transfection efficiency in Hela cells (Hela cells [6]) | Absolute DNA transfection efficiency in MCF7 cells (MCF7 cells [7]) | Absolute mRNA transfection efficiency in MCF7 cells (MCF7 cells [8])
CCCCCCCCCCCCCCCCSc1nc(NCC2CCN(C)CC2)nc(SCCCCCCCCCC)n1 [Compound S10S16D10] | 0.03 | 136 ± 5 nm | 0.04 | 125 ± 5 nm | 99.5% | 99.2% | 3.2E+06 | 4.7E+07 | 2.9E+06 | 79.4% | 47.4% | – | – | – | –
CCCCC/C=C\C/C=C\CCCCCCCCC(CCCCCCCC/C=C\C/C=C\CCCCC)OC(=O)CCCN(C)C [DLin-MC3, reference compound] | – | – | – | – | – | – | 2.7E+07 | 3.1E+06 | 2.7E+07 | – | – | – | – | – | –
CCCCCCCCCCCCCCCCSc1nc(NCCCN2CCN(C)CC2)nc(SCCCCCCCC)n1 [Compound S8S16D9] | 0.01 | 96 ± 5 nm | 0.02 | 115 ± 5 nm | 98.7% | 99.4% | 8.2E+06 | 4.2E+06 | 6.5E+06 | 6.7% | 1.5% | – | – | – | –
CCCCCCCCCCCCCCCCSc1nc(NCCN2CCN(C)CC2)nc(SCCCCCCCCC)n1 [Compound S9S16D5] | 0.04 | 152 ± 5 nm | 0.05 | 130 ± 5 nm | 99.1% | 99.6% | 5.2E+06 | 4.2E+07 | 7.5E+06 | 23.5% | 47.8% | 11.7% | 11.7% | 26.6% | 32.0%

Second part, led by results:

PDI ([1]; Formulation Method 1) | Particle size (nm) [1, 9] | PDI ([1]; Formulation method 2) | Particle size (nm) [1, 10] | Encapsulation rate ([2]; Formulation Method 1) | Encapsulation rate ([2]; Formulation method 2) | Structure (SMILES) | Fluorescence intensity (expression intensity of Fluc mRNA) (BALB/c mice; intramuscular administration) | Fluorescence intensity (expression intensity of Fluc mRNA) (BALB/c mice; subcutaneous administration) | Fluorescence intensity (expression intensity of Fluc mRNA) (BALB/c mice; tail vein administration) | Absolute DNA transfection efficiency in HEK293 cells (HEK293 cells [3]) | Absolute mRNA transfection efficiency in HEK293 cells (HEK293 cells [4]) | Absolute DNA transfection efficiency in Hela cells (Hela cells [5]) | Absolute mRNA transfection efficiency in Hela cells (Hela cells [6]) | Absolute DNA transfection efficiency in MCF7 cells (MCF7 cells [7]) | Absolute mRNA transfection efficiency in MCF7 cells (MCF7 cells [8])
0.02 | 80 ± 5 nm | 0.01 | 90 ± 5 nm | 98.3% | 98.9% | CCCCCCCCCCCCSc1nc(NCCCN2CCOCC2)nc(SCCCCCCCCCCC)n1 [Compound S11S12D8] | 4.7E+06 | 1.1E+07 | 3.8E+06 | 10.7% | 6.7% | – | – | – | –
0.08 | 87 ± 4 nm | 0.06 | 127 ± 5 nm | 98.9% | 99.1% | CCCCCCCCCCCCCCCCSc1nc(NCCCCCCCCC)nc(NCCN2CCCC2)n1 [Compound S16N9D3] | 4.3E+06 | 2.7E+07 | 5.3E+06 | – | – | – | – | – | –
0.05 | 89 ± 5 nm | 0.04 | 96 ± 5 nm | 99.0% | 99.2% | CCCCCCCCCCCCCNc1nc(NCCCN(C)C)nc(SCCCCCCCCCCCC)n1 [Compound S12N13D6] | 1.2E+06 | 8.6E+06 | 3.9E+06 | – | – | – | – | – | –
0.02 | 79 ± 5 nm | 0.01 | 95 ± 5 nm | 99.2% | 98.8% | CCCCCCCCCCCCCCCSc1nc(NCCCCCCCCCCC)nc(NCCN2CCN(C)CC2)n1 [Compound S15N11D5] | 3.7E+06 | 1.9E+08 | 3.7E+06 | – | – | – | – | – | –
0.04 | 90 ± 5 nm | 0.03 | 120 ± 5 nm | 97.2% | 98.6% | CCCCCCCCCCCCCCCCSc1nc(NCCCCCCCC)nc(NCC2CCN(C)CC2)n1 [Compound S16N8D10] | 3.9E+06 | 3.7E+08 | 3.2E+06 | – | – | – | – | – | –
